Laboratory results from patent publication US20250051333A1, “POLYMORPH OF KRAS INHIBITOR, PREPARATION METHOD THEREFOR, AND USE THEREOF” (GENFLEET THERAPEUTICS (SHANGHAI) INC., priority 2021, published 2025).

How the values were obtained:
Assay type in all cases: physicochemical
[1] = Hygroscopicity by DVS testing; conditions: for Desorption curve (cycle 1, desorption): DVS 25° C., from 30% RH to 95% RH
Procedure: The dynamic vapor sorption (DVS) analysis may be conducted on the DVS Intrinsic system from Surface Measurement Systems (SMS). Temperature: 25° C.: sample amount: 20-40 mg; protective gas and flow rate: N2, 200 mL/min; dm/dt: 0.002%/min; minimum dm/dt equilibration time: 10 min, maximum equilibration time. 180 min; RH range: room humidity to 95% RH to 0% RH to 95% RH: 0% RH to 95% RH to 0% RH; RH gradient: 10% RH (0% RH to 90% RH & 90% RH to 0% RH): 5% RH (90% RH to 95% RH & 95% RH to 90% RH).

[2] = Solid stability, 60° C./75% RH open, physical stability by XRPD; conditions: for Crystalline form: XRPD; for Polymorphic transition: 60° C./75% RH open, up to 1 month
Procedure: Appropriate amounts of samples were weighed and let stand at 60° C./75% RH open to the atmosphere for 7 days, 14 days, and 1 month. Samples of different standing times were evaluated for the physical stability of the crystalline forms by XRPD.

[3] = Variable-temperature XRPD / heating test of crystalline forms
Procedure: The X-ray powder diffraction (XRPD) analysis may be conducted on the X'Pert3 X-ray powder diffraction analyzer with the following parameters: Cu, kα; Kα1 (Å): 1.540598: Kα2 (Å): 1.544426; Kα2/Kα1 intensity ratio: 0.50; voltage: 45 kV; current: 40 mA; divergent slit: ⅛°; scan mode: continuous: scanning range: 3° to 40°: scanning step: 0.0263°; time of step: 46.665 s: scanning time: 5 min 03 s. Alternatively, the analysis may be conducted on the PANalytical Empyrean X-ray powder diffraction analyzer with the following parameters: Cu, kα; Kα1 (Å): 1.540598: Kα2 (Å); 1.544426: Kα2/Kα1 intensity ratio: 0.50: voltage: 45 kV; current; 40 mA: divergent slit: automatic; scan mode: continuous; scanning range: 3° to 40°; scanning step: 0.0167°; time of step: 17.780 s/33.020 s; scanning time: 5 min 32 s/10 min 13 s.

[4] = Solid stability, 60° C. sealed 24 hours and 40° C./75% RH open one week (XRPD, HPLC, KF); conditions: for Purity (%): HPLC; for Water content (%): KF test; for Polymorphic transition or not: XRPD; for HPLC purity change / Polymorphic transition: 60° C. sealed 24 hours and 40° C./75% RH open one week; for Relative to the initial (%): purity
Description: Proton nuclear magnetic resonance may be conducted on the Bruker 400M nuclear magnetic resonance spectrometer, with deuterated chloroform, deuterated methanol, or dimethyl sulfoxide-d6 as the solvent. Water titration (KF test) may be conducted on the Metrohm 870 KF Titrinoplus from Sigma-Aldrich, with ultrapure water for calibration and Hydranal® R-Composite 5 as the titration reagent. HPLC-grade methanol was used to dissolve the solid sample.
High-performance liquid chromatography (HPLC) may be conducted on the Agilent 1260 high-performance liquid chromatograph system (Waters Xbridge C18, 150×4.6 mm, 5 μm column).
In order to further evaluate the solid stability of the crystalline forms of the present invention, appropriate amounts of samples were for at 60° C. in a sealed condition for 24 hours and at 40° C./75% RH open to the atmosphere for a week.

[5] = Humidity induction test: standing at various humidities at room temperature; conditions: for Polymorphic transition or not: room temperature, open
Description: Some of the crystalline forms prepared in the above examples were investigated in a humidity induction test at room temperature.

[6] = 22.5% RH (saturated potassium acetate), 10 days
[7] = 22.5% RH (saturated potassium acetate), 23 days
[8] = 22.5% RH (saturated potassium acetate), 30 days
[9] = 43.2% RH (saturated potassium carbonate), 10 days
[10] = 43.2% RH (saturated potassium carbonate), 23 days
[11] = 43.2% RH (saturated potassium carbonate), 30 days
[12] = 60% RH (stability chamber), 10 days
[13] = 60% RH (stability chamber), 23 days
[14] = 60% RH (stability chamber), 30 days
[15] = 84.2% RH (saturated potassium chloride), 10 days
[16] = 84.2% RH (saturated potassium chloride), 23 days
[17] = 84.2% RH (saturated potassium chloride), 30 days
[18] = 30 days open to the atmosphere at room temperature at 22.5% RH to 84.2% RH
[19] = 23 days open to the atmosphere at room temperature at 43.2% RH to 84.2% RH

C=CC(=O)N1CCN2c3c(c(=O)n(-c4c(C)ccnc4C(C)C)c4nc(-c5c(O)cccc5F)c(Cl)cc34)N(C)C(=O)[C@H]2C1 (single isomer, unassigned) [Amorphous form sample]
Desorption curve (cycle 1, desorption) [1]: a plateau was observed
Crystalline form ([2]; 60° C./75% RH (open), 1 month): Polymorphic transition
Crystalline form ([2]; 60° C./75% RH (open), 7 days): Amorphous form
Polymorphic transition [2]: occurrence of polymorphic transition
Crystalline form ([2]; Initial, 0 days): Amorphous form

C=CC(=O)N1CCN2c3c(c(=O)n(-c4c(C)ccnc4C(C)C)c4nc(-c5c(O)cccc5F)c(Cl)cc34)N(C)C(=O)[C@H]2C1 [Crystalline form 3, (4aR,8R)-3-acryloyl-11-chloro-10-(2-fluoro-6-hydroxyphenyl)-8-(2-isopropyl-4-methylpyridin-3-yl)-6-methyl-2,3,4,4a,6,8-hexahydro-1H-pyrazino[1′,2′:4,5]pyrazino[2,3-c][1,8]naphthyridine-5,7-dione]
Weight gain (DVS) ([1]; 25° C./80% RH): less than 0.9%
Hygroscopicity (in words) ([1]; DVS at 25° C., 0% RH to 95% RH): almost no hygroscopicity
Crystalline form after DVS testing (XRPD) ([1]; after DVS testing): did not change
Crystalline form ([2]; 60° C./75% RH (open), 1 month): Crystalline form 3
Crystalline form ([2]; 60° C./75% RH (open), 7 days): Crystalline form 3
Crystalline form ([2]; 60° C./75% RH (open), 14 days): Crystalline form 3
Polymorphic transition [2]: no transition
Crystalline form ([2]; Initial, 0 days): Crystalline form 3
Crystalline form change on heating (variable-temperature XRPD) ([3]; heating to 150° C. and cooling to 30° C. in a N2 atmosphere): no crystalline form changes were observed
Purity (%) ([4]; 40° C./75% RH/open, 1 week): 99.27%
Water content (%) ([4]; 40° C./75% RH/open, 1 week): 1.3%
Polymorphic transition or not ([4]; 40° C./75% RH/open, 1 week): No
HPLC purity change [4]: no significant decrease in HPLC purity
Polymorphic transition [4]: no polymorphic transition
Purity (%) ([4]; 60° C./sealed, 1 day): 99.27%
Water content (%) ([4]; 60° C./sealed, 1 day): 1.1%
Polymorphic transition or not ([4]; 60° C./sealed, 1 day): No
Purity (%) ([4]; Initial): 99.33%
Water content (%) ([4]; Initial): 0.9%
Relative to the initial (%) ([4]; 40° C./75% RH/open, 1 week): 99.94%
Relative to the initial (%) ([4]; 60° C./sealed, 1 day): 99.94%
Polymorphic transition or not [5, 6]: No
Polymorphic transition or not [5, 7]: No
Polymorphic transition or not [5, 8]: No
Polymorphic transition or not [5, 9]: No
Polymorphic transition or not [5, 10]: No
Polymorphic transition or not [5, 11]: No
Polymorphic transition or not [5, 12]: No
Polymorphic transition or not [5, 13]: No
Polymorphic transition or not [5, 14]: No
Polymorphic transition or not [5, 15]: No
Polymorphic transition or not [5, 16]: No
Polymorphic transition or not [5, 17]: No
Polymorphic transition [5, 18]: neither crystalline form 6 (Example 12) nor crystalline form 3 (Example 3) exhibited polymorphic transition

C=CC(=O)N1CCN2c3c(c(=O)n(-c4c(C)ccnc4C(C)C)c4nc(-c5c(O)cccc5F)c(Cl)cc34)N(C)C(=O)[C@H]2C1 [Crystalline form 4, (4aR,8R)-3-acryloyl-11-chloro-10-(2-fluoro-6-hydroxyphenyl)-8-(2-isopropyl-4-methylpyridin-3-yl)-6-methyl-2,3,4,4a,6,8-hexahydro-1H-pyrazino[1′,2′:4,5]pyrazino[2,3-c][1,8]naphthyridine-5,7-dione]
Crystalline form change on heating (variable-temperature XRPD) ([3]; heating to 80° C. or 130° C. in a N2 atmosphere): no significant crystalline form changes were observed

C=CC(=O)N1CCN2c3c(c(=O)n(-c4c(C)ccnc4C(C)C)c4nc(-c5c(O)cccc5F)c(Cl)cc34)N(C)C(=O)[C@H]2C1 [Crystalline form 6, (4aR,8R)-3-acryloyl-11-chloro-10-(2-fluoro-6-hydroxyphenyl)-8-(2-isopropyl-4-methylpyridin-3-yl)-6-methyl-2,3,4,4a,6,8-hexahydro-1H-pyrazino[1′,2′:4,5]pyrazino[2,3-c][1,8]naphthyridine-5,7-dione]
Desorption curve (cycle 1, desorption) [1]: a plateau can be observed
Crystallinity after DVS testing ([1]; after DVS testing): only slightly reduced
Polymorphic transition [2]: mild transition
Crystalline form ([2]; Initial, 0 days): Crystalline form 6
Purity (%) ([4]; 40° C./75% RH/open, 1 week): 99.56%
Water content (%) ([4]; 40° C./75% RH/open, 1 week): 8.7%
Polymorphic transition or not ([4]; 40° C./75% RH/open, 1 week): No
HPLC purity change [4]: no significant decrease in HPLC purity
Polymorphic transition [4]: no polymorphic transition
Purity (%) ([4]; 60° C./sealed, 1 day): 99.62%
Water content (%) ([4]; 60° C./sealed, 1 day): 6.2%
Polymorphic transition or not ([4]; 60° C./sealed, 1 day): No
Purity (%) ([4]; Initial): 99.61%
Water content (%) ([4]; Initial): 9.0%
Relative to the initial (%) ([4]; 40° C./75% RH/open, 1 week): 99.95%
Relative to the initial (%) ([4]; 60° C./sealed, 1 day): 100.01%
Polymorphic transition or not [5, 6]: No
Polymorphic transition or not [5, 7]: No
Polymorphic transition or not [5, 8]: No
Polymorphic transition or not [5, 9]: No
Polymorphic transition or not [5, 10]: No
Polymorphic transition or not [5, 11]: No
Polymorphic transition or not [5, 12]: No
Polymorphic transition or not [5, 13]: No
Polymorphic transition or not [5, 14]: No
Polymorphic transition or not [5, 15]: No
Polymorphic transition or not [5, 16]: No
Polymorphic transition or not [5, 17]: No
Polymorphic transition [5, 18]: neither crystalline form 6 (Example 12) nor crystalline form 3 (Example 3) exhibited polymorphic transition

C=CC(=O)N1CCN2c3c(c(=O)n(-c4c(C)ccnc4C(C)C)c4nc(-c5c(O)cccc5F)c(Cl)cc34)N(C)C(=O)[C@H]2C1 [Crystalline form 8, (4aR,8R)-3-acryloyl-11-chloro-10-(2-fluoro-6-hydroxyphenyl)-8-(2-isopropyl-4-methylpyridin-3-yl)-6-methyl-2,3,4,4a,6,8-hexahydro-1H-pyrazino[1′,2′:4,5]pyrazino[2,3-c][1,8]naphthyridine-5,7-dione]
Polymorphic transition or not [5, 9]: No
Polymorphic transition or not [5, 10]: No
Polymorphic transition or not [5, 12]: No
Polymorphic transition or not [5, 13]: No
Polymorphic transition or not [5, 15]: No
Polymorphic transition or not [5, 16]: No
Polymorphic transition [5, 19]: neither crystalline form 8 (Example 40) nor crystalline form 9 (Example 42) exhibited polymorphic transition

C=CC(=O)N1CCN2c3c(c(=O)n(-c4c(C)ccnc4C(C)C)c4nc(-c5c(O)cccc5F)c(Cl)cc34)N(C)C(=O)[C@H]2C1 [Crystalline form 9, (4aR,8R)-3-acryloyl-11-chloro-10-(2-fluoro-6-hydroxyphenyl)-8-(2-isopropyl-4-methylpyridin-3-yl)-6-methyl-2,3,4,4a,6,8-hexahydro-1H-pyrazino[1′,2′:4,5]pyrazino[2,3-c][1,8]naphthyridine-5,7-dione]
XRPD pattern after heating test ([3]; heated to 100° C. and exposed to air): identical to that before heating
Polymorphic transition or not [5, 9]: No
Polymorphic transition [5, 19]: neither crystalline form 8 (Example 40) nor crystalline form 9 (Example 42) exhibited polymorphic transition

C=CC(=O)N1CCN2c3c(c(=O)n(-c4c(C)ccnc4C(C)C)c4nc(-c5c(O)cccc5F)c(Cl)cc34)N(C)C(=O)[C@H]2C1 [Crystalline form 11, (4aR,8R)-3-acryloyl-11-chloro-10-(2-fluoro-6-hydroxyphenyl)-8-(2-isopropyl-4-methylpyridin-3-yl)-6-methyl-2,3,4,4a,6,8-hexahydro-1H-pyrazino[1′,2′:4,5]pyrazino[2,3-c][1,8]naphthyridine-5,7-dione]
Crystalline form change on heating (variable-temperature XRPD) ([3]; holding at 30° C. for 20 minutes and heating to 100 C in a N2 atmosphere): no significant crystalline form changes were observed
